Legend:
RAW264.7 = assay: Inhibition of RANKL-induced bone resorption of multinucleated osteoclasts from mouse RAW264.7 cells by pit formation assay; assay type: functional, cell-based
Cathepsin B = Cathepsin B (Homo sapiens, UniProt P07858); assay: Inhibition of human recombinant cathepsin B
Macrophage = assay: Inhibition of RANKL-induced bone resorption of multinucleated osteoclasts from BALB/c mouse bone marrow-derived macrophages by pit formation assay; assay type: functional, cell-based
Cathepsin K = molecular target: T1, Cathepsin K (Homo sapiens, UniProt P43235); assay: Inhibition of human recombinant cathepsin K
T1 sequence (P43235 whole entry): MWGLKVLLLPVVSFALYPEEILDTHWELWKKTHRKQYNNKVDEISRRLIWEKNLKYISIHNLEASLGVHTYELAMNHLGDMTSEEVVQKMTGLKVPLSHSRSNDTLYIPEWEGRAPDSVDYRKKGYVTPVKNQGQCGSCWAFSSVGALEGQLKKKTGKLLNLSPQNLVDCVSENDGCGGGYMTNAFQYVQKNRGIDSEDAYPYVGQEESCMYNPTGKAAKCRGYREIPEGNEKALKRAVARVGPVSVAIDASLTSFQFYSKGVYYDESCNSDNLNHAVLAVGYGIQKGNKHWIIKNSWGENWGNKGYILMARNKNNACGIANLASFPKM

Procathepsin L = Procathepsin L (Homo sapiens, UniProt P07711); assay: Inhibition of human recombinant cathepsin L
Sequence of Procathepsin L (P07711 whole entry): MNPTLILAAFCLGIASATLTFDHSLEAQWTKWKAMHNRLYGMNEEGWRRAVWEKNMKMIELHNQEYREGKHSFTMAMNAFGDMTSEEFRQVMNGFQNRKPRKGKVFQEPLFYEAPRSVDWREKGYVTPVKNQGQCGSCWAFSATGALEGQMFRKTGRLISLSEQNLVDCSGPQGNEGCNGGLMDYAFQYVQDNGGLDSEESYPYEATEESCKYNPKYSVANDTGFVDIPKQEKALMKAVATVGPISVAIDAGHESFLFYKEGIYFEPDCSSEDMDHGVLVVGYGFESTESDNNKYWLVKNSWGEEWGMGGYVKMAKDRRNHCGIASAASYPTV

SMILES | IC50 (Cathepsin B) [nM] | IC50 (Cathepsin K) [nM] | IC50 (Procathepsin L) [nM] | Activity (RAW264.7) | Activity (Macrophage)
Cc1cccc(NC(C(=O)N2CCCCN2C#N)C(C)C)c1 (stereo unspecified) | 32 | 6 | 355 |  | 
CC(C)C(Nc1cccc(C(F)(F)F)c1)C(=O)N1CCCCN1C#N (stereo unspecified) | 23 | 23 | 48 |  | 
CC(C)C(Nc1ccc(Cl)cc1)C(=O)N1CCCCN1C#N (stereo unspecified) | 110 | 24 | 610 |  | 
CC(C)C(NC(=O)OC(C)(C)C)C(=O)N1CCCCN1C#N (stereo unspecified) | 38 | 55 | 130 |  | 

More lines, main results first:

IC50 (Cathepsin B) [nM] | IC50 (Cathepsin K) [nM] | IC50 (Procathepsin L) [nM] | SMILES | Activity (RAW264.7) | Activity (Macrophage)
11 | 1 | 145 | CC(C)C(NC(=O)OCc1ccccc1)C(=O)N1CCCCN1C#N (stereo unspecified) | Dose-dependent effect | Dose-dependent effect
53 | 25 | 625 | CC(C)C(Nc1ccccc1)C(=O)N1CCCCN1C#N (stereo unspecified) |  | 
32 | 11 | 240 | CC(C)C(Nc1cccc(Cl)c1)C(=O)N1CCCCN1C#N (stereo unspecified) |  | 
40 | 4 | 730 | CC(C)C(Nc1cccc(C#N)c1)C(=O)N1CCCCN1C#N (stereo unspecified) |  | 
